Reference: patent publication US9174984B2, “Chemical compounds” (GlaxoSmithKline Intellectual Property (No. 2) Limited, priority 2011, dated 2015)
Several values for one entry are separate records, joined by “and”; a condition that tells them apart may be missing. Equal entries are not always repeated.

The compounds below were run against T1, Human DNMT3b/3L (Homo sapiens, UniProt Q9UBC3) (assay: DNMT inhibition assay (3H-SAM filter-binding) against DNMT3b/3L). Conditions: at least one experimental run or average of several runs; Examples 1-114 and 115-120 use different protocols; read-out: IC50 against DNMT 3b/3L.
T1 construct: truncated 3b (catalytic domain)
Type: biochemical
Method: DNMT Assays Used for Examples 1-114
Human DNMT3b/3L was coexpressed using truncated 3b (catalytic domain) and 3L (DNA binding domain) at GSK. Human full-length DNMT1 enzyme purchased from BPS Biosciences. Poly(dIdC) DNA (Sigma) was used at 0.002 mg/mL. Tritiated SAM (Perkin Elmer) was used at 500 nM. DNA, DNMT enzyme, and inhibitors were mixed with assay buffer (20 mM Tris pH8, 5% glycerol, 1 mM EDTA, 100 μg/mL BSA, 1 mM DTT, 50 mM NaCl) and pre-incubated without SAM for 30 min. H3 SAM was then added to initiate the methylation reaction which continues at 37° C. for 1 h. Reaction mixture was then transferred to a filter plate (Millipore Multiscreen HTS DE), then washed with 50 mM H2PO4 and 95% Ethanol. Scintillation counts were measured on the Perkin Elmer Microbeta scintillation counter.
DNMT Assays Used for Examples 115-120
DNMT enzymes were produced by GlaxoSmithKline. Human DNMT3b/3L was coexpressed using truncated 3b (catalytic domain) and 3L (DNA binding domain). DNMT1 was human, full-length protein. 3H-SAM was purchased from Perkin Elmer. Custon DNA oligonucleotide substrates were purchased from Integrated DNA technologies.
28-mer DNA Oligonucleotide Duplex (for DNMT3b/3L)
DNMT enzyme was preincubated with compound for 1 hr at RT, after which SAM and DNA were added to initiate the methylation reaction. The methylation reaction was quenched after 20 min upon the addition of >100 fold excess non-radioactive SAM. The quenched reaction mixture (80%) was transferred to a DEAE filter binding plate (Millipore Multiscreen HTS DE), washed with 3 volumes of 50 mM phosphate buffer and dried. Scintillation cocktail (MicroScint-20) was added to the plate and radioactivity (3H-DNA) was measured using a Perkin Elmer TopCount scintillation counter.
Final reagent concentrations (prior to quench) consisted of the following:
DNMT3b/3L (10 nM), 200 nM DNA, 200 nM 3H-SAM in 20 mM Tris (pH 8), 1 mM DTT, 1 mM EDTA, 25 mM NaCl, 1 mM CHAPS and 2% DMSO.

IC50 [nM] | SMILES
≤ 20000 | C=CC(=O)Nc1cc(CNC(=S)NCc2ccnc3[nH]ccc23)cc(C(F)(F)F)c1 [Example 35, N-(3-((3-((1H-pyrrolo[2,3-b]pyridin-4-yl)methyl)thioureido)methyl)-5-(trifluoromethyl)phenyl)acrylamide]
≤ 10000 | CN(C(=O)C#Cc1ccccc1)c1cccc(CNC(=S)NCc2ccnc3[nH]ccc23)c1 [Example 117, N-(3-((3-((1H-pyrrolo[2,3-b]pyridin-4-yl)methyl)thioureido)methyl)phenyl)-N-methyl-3-phenylpropiolamide]
≤ 1000 | O=C(C#CC1CCCC1)Nc1cccc(CNC(=O)NCc2ccnc3[nH]ccc23)c1 [Example 118, N-(3-((3-((1H-pyrrolo[2,3-b]pyridin-4-yl)methyl)ureido)methyl)phenyl)-3-cyclopentylpropiolamide]
≤ 1000 | O=C(NCc1ccnc2[nH]ccc12)NC1CN(C(=O)C#CC2CCCCC2)C1 [Example 119, 1-((1H-pyrrolo[2,3-b]pyridin-4-yl)methyl)-3-(1-(3-cyclohexylpropioloyl)azetidin-3-yl)urea]
≤ 1000 | O=C(NCc1ccccc1-c1cscn1)NCc1ccnc2[nH]ccc12 [Example 120, 1-((1H-pyrrolo[2,3-b]pyridin-4-yl)methyl)-3-(2-(thiazol-4-yl)benzyl)urea]

The compounds below were run against T2, Human full-length DNMT1 (Homo sapiens, UniProt P26358) (assay: DNMT inhibition assay (3H-SAM filter-binding) against DNMT1). Conditions: at least one experimental run or average of several runs; Examples 1-114 and 115-120 use different protocols.
T2 construct: Human full-length DNMT1 enzyme purchased from BPS Biosciences; purchased BPS Biosciences
Type: biochemical

T2 sequence (P26358 whole entry): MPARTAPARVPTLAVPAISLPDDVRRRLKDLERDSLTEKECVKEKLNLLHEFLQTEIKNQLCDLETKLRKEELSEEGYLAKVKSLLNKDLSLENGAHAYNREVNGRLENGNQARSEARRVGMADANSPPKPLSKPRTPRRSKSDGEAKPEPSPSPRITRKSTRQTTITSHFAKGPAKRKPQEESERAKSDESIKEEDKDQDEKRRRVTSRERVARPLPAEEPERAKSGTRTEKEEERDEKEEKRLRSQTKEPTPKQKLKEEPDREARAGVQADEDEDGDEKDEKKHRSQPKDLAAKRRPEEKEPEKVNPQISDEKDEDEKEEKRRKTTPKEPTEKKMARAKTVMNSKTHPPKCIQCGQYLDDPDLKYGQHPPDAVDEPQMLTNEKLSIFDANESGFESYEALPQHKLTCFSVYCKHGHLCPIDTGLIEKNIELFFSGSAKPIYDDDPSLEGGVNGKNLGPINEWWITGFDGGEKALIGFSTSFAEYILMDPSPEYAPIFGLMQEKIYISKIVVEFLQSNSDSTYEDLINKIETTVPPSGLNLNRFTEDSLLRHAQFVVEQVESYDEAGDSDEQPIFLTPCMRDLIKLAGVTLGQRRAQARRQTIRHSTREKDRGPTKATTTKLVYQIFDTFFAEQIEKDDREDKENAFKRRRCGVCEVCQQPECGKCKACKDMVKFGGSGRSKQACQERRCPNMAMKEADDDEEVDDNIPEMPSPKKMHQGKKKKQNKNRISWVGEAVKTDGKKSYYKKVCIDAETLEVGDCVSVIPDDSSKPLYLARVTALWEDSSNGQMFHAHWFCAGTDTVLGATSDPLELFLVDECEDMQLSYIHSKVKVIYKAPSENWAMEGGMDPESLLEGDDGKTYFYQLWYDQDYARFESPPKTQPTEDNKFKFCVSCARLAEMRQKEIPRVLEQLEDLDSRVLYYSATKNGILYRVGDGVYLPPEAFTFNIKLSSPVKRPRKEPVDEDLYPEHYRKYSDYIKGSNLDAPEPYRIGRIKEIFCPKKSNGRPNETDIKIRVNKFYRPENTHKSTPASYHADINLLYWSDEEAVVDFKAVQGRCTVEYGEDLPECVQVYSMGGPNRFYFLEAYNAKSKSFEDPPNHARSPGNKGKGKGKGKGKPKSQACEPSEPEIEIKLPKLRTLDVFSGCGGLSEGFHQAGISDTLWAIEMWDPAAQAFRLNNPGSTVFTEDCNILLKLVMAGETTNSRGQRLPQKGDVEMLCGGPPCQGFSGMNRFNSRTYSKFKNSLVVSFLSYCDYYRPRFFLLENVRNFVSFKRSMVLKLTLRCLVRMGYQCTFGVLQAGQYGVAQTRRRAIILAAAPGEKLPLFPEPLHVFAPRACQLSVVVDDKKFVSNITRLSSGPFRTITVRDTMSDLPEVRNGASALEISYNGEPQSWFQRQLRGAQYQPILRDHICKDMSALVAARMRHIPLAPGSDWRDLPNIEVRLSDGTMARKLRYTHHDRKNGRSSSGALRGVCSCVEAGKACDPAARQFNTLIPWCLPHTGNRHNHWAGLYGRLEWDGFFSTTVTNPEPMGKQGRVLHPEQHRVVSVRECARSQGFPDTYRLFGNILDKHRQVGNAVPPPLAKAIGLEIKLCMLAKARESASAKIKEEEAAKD

IC50 | SMILES
19.1 to 300 µM | Nc1ccccc1CNC(=S)NCc1ccnc2[nH]ccc12 [Example 26, 1-((1H-pyrrolo[2,3-b]pyridin-4-yl)methyl)-3-(2-aminobenzyl)thiourea]
19.1 to 300 µM and ≤ 100 µM | Nc1ccc([N+](=O)[O-])cc1CNC(=S)NCc1ccnc2[nH]ccc12 [Example 30, 1-((1H-pyrrolo[2,3-b]pyridin-4-yl)methyl)-3-(2-amino-5-nitrobenzyl)thiourea]
19.1 to 300 µM | C=CC(=O)Nc1cc(CNC(=S)NCc2ccnc3[nH]ccc23)cc(C(F)(F)F)c1 [Example 35, N-(3-((3-((1H-pyrrolo[2,3-b]pyridin-4-yl)methyl)thioureido)methyl)-5-(trifluoromethyl)phenyl)acrylamide]
19.1 to 300 µM | NC(CCCCNC(=S)NCc1ccnc2[nH]ccc12)C(=O)O (centres unmarked) [Example 46, 6-(3-((1H-pyrrolo[2,3-b]pyridin-4-yl)methyl)thioureido)-2-aminohexanoic acid]
19.1 to 300 µM and ≤ 200 µM | O=C(C#Cc1ccc(F)cc1)NCCNC(=S)NCc1ccnc2[nH]ccc12 [Example 85, N-(2-(3-((1H-pyrrolo[2,3-b]pyridin-4-yl)methyl)thioureido)ethyl)-3-(4-fluorophenyl)propiolamide]
19.1 to 300 µM and 75 µM and ≤ 100 µM | O=C(C#Cc1cccc(F)c1)NCCNC(=S)NCc1ccnc2[nH]ccc12 [Example 86, N-(2-(3-((1H-pyrrolo[2,3-b]pyridin-4-yl)methyl)thioureido)ethyl)-3-(3-fluorophenyl)propiolamide]
19.1 to 300 µM | Cc1ccc(C#CC(=O)NCCNC(=S)NCc2ccnc3[nH]ccc23)cc1 [Example 88, N-(2-(3-((1H-pyrrolo[2,3-b]pyridin-4-yl)methyl)thioureido)ethyl)-3-(p-tolyl)propiolamide]
19.1 to 300 µM and ≤ 200 µM | O=C(C#Cc1ccc(Cl)cc1)NCCNC(=S)NCc1ccnc2[nH]ccc12 [Example 89, N-(2-(3-((1H-pyrrolo[2,3-b]pyridin-4-yl)methyl)thioureido)ethyl)-3-(4-chlorophenyl)propiolamide]
19.1 to 300 µM and ≤ 100 µM | COc1ccc(C#CC(=O)NCCNC(=S)NCc2ccnc3[nH]ccc23)cc1OC [Example 92, N-(2-(3-((1H-pyrrolo[2,3-b]pyridin-4-yl)methyl)thioureido)ethyl)-3-(3,4-dimethoxyphenyl)propiolamide]
19.1 to 300 µM and ≤ 100 µM | O=C(C#Cc1ccc2c(c1)OCO2)NCCNC(=S)NCc1ccnc2[nH]ccc12 [Example 93, N-(2-(3-((1H-pyrrolo[2,3-b]pyridin-4-yl)methyl)thioureido)ethyl)-3-(benzo[d][1,3]dioxol-5-yl)propiolamide]
19.1 to 300 µM | C=CC(=O)Nc1ccc([N+](=O)[O-])cc1CNC(=S)NCc1ccnc2[nH]ccc12 [Example 110, N-(2-((3-((1H-Pyrrolo[2,3-b]pyridin-4-yl)methyl)thioureido)methyl)-4-nitrophenyl)acrylamide]
19.1 to 300 µM and ≤ 200 µM | NCC(=O)Nc1ccccc1CNC(=S)NCc1ccnc2[nH]ccc12 [Example 114, N-(2-((3-((1H-Pyrrolo[2,3-b]pyridin-4-yl)methyl)thioureido)methyl)phenyl)-2-aminoacetamide]
